Results on 21 compounds are retold here after patent US9643946B2, “Tricyclic compound and use thereof” (SK CHEMICALS CO., LTD., priority 2013, dated 2017).

Structures are written as SMILES.

human GPR40 protein, sequence (O14842 whole entry): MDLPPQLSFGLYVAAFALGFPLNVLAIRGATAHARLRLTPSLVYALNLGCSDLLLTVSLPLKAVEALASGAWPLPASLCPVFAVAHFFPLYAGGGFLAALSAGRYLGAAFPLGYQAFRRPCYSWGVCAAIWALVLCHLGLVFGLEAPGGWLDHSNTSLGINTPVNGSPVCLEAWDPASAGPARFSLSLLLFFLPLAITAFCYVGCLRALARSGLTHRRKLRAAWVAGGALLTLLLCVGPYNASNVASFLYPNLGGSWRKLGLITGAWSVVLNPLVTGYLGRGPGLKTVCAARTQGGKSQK

In the first experiment the test system is male ZFDM rats. Briefly: Hypoglycemic rate after oral glucose loading in rats. The settings on record: oral 0.1 to 30 mg/kg one hour before glucose loading (1.5 g/kg), blood glucose AUC 0 to 120 minutes versus control. The format is in vivo, rat. As to the method: Measurement of Hypoglycemic Rate in Rats
An effect of the compound according to one exemplary embodiment of the present invention on blood glucose inhibition after glucose loading was examined in male ZFDM rats (Japan SLC, Inc.).
Specifically, male ZFDM rats (7 week-old) pre-fed for a week were fasted overnight, and used as an animal to be tested. A test compound was prepared into a 0.5% methylcellulose suspension, which was orally administered to rats at a dose of 0.1 to 30 mg/kg before an hour of glucose loading (1.5 g/kg). As the control, 0.5% methylcellulose was administered. After the glucose administration, blood was drawn from the rats' tails after 0, 15, 30, 60 and 120 minutes to measure a blood glucose level. The area under the curve (AUC) for compound treatment was calculated using a blood glucose change profile from t=0 to 120 minutes, and a hypoglycemic rate (%) for the control was calculated.
`Cc1cc(OCCCS(C)(=O)=O)cc2c1-c1cc(COc3ccc4c(c3)OC[C@H]4CC(=O)O)ccc1OC2` [Example 26, (S)-2-(6-((10-methyl-8-(3-(methylsulfonyl)propoxy)-6H-benzo[c]chromen-2-yl)methoxy)-2,3-dihydrobenzofuran-3-yl)acetic acid]: the Hypoglycemic rate came to 31.0%.

The compound `CCS(=O)(=O)CCCOc1cc(C)c2c(c1)CCCc1ccc(COc3ccc4c(c3)OC[C@H]4CC(=O)O)cc1-2` [Example 57, 2-((3S)-6-((9-(3-(ethylsulfonyl)propoxy)-11-methyl-6,7-dihydro-5H-dibenzo[a,c][7]annulen-2-yl)methoxy)-2,3-dihydrobenzofuran-3-yl)acetic acid] displayed a Hypoglycemic rate of 21.7%.

In turn, `CC#C[C@@H](CC(=O)O)c1ccc(OCc2ccc3c(c2)-c2ccc(OCCCS(C)(=O)=O)cc2CCC3)cc1` [Example 108, (S)-3-(4-((9-(3-(methylsulfonyl)propoxy)-6,7-dihydro-5H-dibenzo[a,c][7]annulen-2-yl)methoxy)phenyl)hex-4-ynoic acid] displayed a Hypoglycemic rate of 37.5%.

The next experiment addresses human GPR40 protein (Homo sapiens, UniProt O14842). Briefly: GPR40 agonist binding inhibition (displacement of 3H-labeled propanoic acid radioligand). Conditions: membrane protein including human GPR40, 3H-labeled propanoic acid radioligand, 25° C., 2 hours; read-out: Half maximal inhibitory concentration. Here is the method: Measurement of 50% Inhibitory Concentration (ID50) for GPR40 Agonist Binding
To examine the efficacy of the compounds according to one exemplary embodiment of the present invention in modulating GPR40, the half maximal inhibitory concentrations (IC50) of the compounds according to one exemplary embodiment of the present invention were measured by Microbeta2™ (PerkinElmer Inc.) using a change in radiation dose emitted from ^3H-labeled propanoic acid (i.e., 3-(4-((2,6′-dimethyl-6-((4-(^3H))-phenylmethoxy)biphenyl-3-yl)methoxy)phenyl)propanoic acid), which is a radioactive isotope which binds to a human GPR40 protein, as an indicator.
Specifically, a test compound was prepared by serial dilution with DMSO, and 100 μL of a binding buffer (including 25 mM HEPES (pH 7.5), 5 mM MgCl2, 100 mM NaCl, and 0.1% free fatty acid BSA; Sigma-Aldrich Corp.) was put into each well of a 96-well transparent plate. Thereafter, each of the diluted compound, propanoic acid which was prepared by dissolving propanoic acid in DMSO to a concentration of 500 mM and not labeled with a radioactive isotope, and DMSO was dispensed at 5 μL per well. ^3H-labeled propanoic acid was dissolved in a binding buffer at a concentration of 1 nM and dispensed at 50 μL into the corresponding wells, and a membrane protein including a human GPR40 protein was dissolved in a binding buffer at a concentration of 20 μg/well and dispensed at 100 μL, into the corresponding wells.
After the dispensation was completed, the plate was incubated at a temperature of 25° C. and a rotary speed of 230 rpm for 2 hours while shaking. A human GPR40 complex was transferred to Filtermat A (PerkinElmer Inc.) using a cell harvester (PerkinElmer Inc.), washed 10 times with 50 mM tris-HCl, dried, and then scintillated using Meltilex (PerkinElmer Inc.). Thereafter, an emitted radiation dose was measured using Microbeta2™. The radiation doses emitted from the complex in the well containing 10 mM unlabeled propanoic acid and the complex in the well containing DMSO alone were set as 0% and 100%, respectively. Thus, a change curve for each of the radiation doses was plotted to calculate the half maximal inhibitory concentration of the test compound.
For the compound `CC1(COc2ccc3c(c2)CCCc2ccc(COc4ccc5c(c4)OC[C@H]5CC(=O)O)cc2-3)CCS(=O)(=O)CC1` [Example 93, (S)-2-(6-((9-((4-methyl-1,1-dioxidotetrahydro-2H-thiopyran-4-yl)methoxy)-6,7-dihydro-5H-dibenzo[a,c][7]annulen-2-yl)methoxy)-2,3-dihydrobenzofuran-3-yl)acetic acid], the IC50 amounted to 50.5 nM.

Take `CS(=O)(=O)CCCOc1ccc2c(c1)COCc1ccc(CNc3ccc([C@H]4C[C@@H]4C(=O)O)cc3)cc1-2` [Example 18, (1S,2S)-2-(4-(((9-(3-(methylsulfonyl)propoxy)-5,7-dihydrodibenzo[c,e]oxepin-2-yl)methyl)amino)phenyl)cyclopropanecarboxylic acid]: the IC50 turned out to be 752 nM.

Consider `CC#C[C@@H](CC(=O)O)c1ccc(OCc2ccc3c(c2)-c2ccc(OCC4CCS(=O)(=O)CC4)cc2CCC3)cc1` [Example 109, (S)-3-(4-((9-((1,1-dioxidotetrahydro-2H-thiopyran-4-yl)methoxy)-6,7-dihydro-5H-dibenzo[a,c][7]annulen-2-yl)methoxy)phenyl)hex-4-ynoic acid], for which the IC50 stood at 5.6 nM.

Take `Cc1cc(OCC2CCS(=O)(=O)CC2)cc2c1-c1cc(COc3ccc4c(c3)OC[C@H]4CC(=O)O)ccc1OCC2` [Example 47, 2-((3S)-6-((9-((1,1-dioxidotetrahydro-2H-thiopyran-4-yl)methoxy)-11-methyl-6,7-dihydrodibenzo[b,d]oxepin-2-yl)methoxy)-2,3-dihydrobenzofuran-3-yl)acetic acid]: the IC50 came out at 53.1 nM.

For `Cc1cc(OC2CCS(=O)(=O)CC2)cc2c1-c1cc(COc3ccc([C@H]4C[C@@H]4C(=O)O)cc3)ccc1CCC2` [Example 59, (1S,2S)-2-(4-((9-((1,1-dioxidotetrahydro-2H-thiopyran-4-yl)oxy)-11-methyl-6,7-dihydro-5H-dibenzo[a,c][7]annulen-2-yl)methoxy)phenyl)cyclopropanecarboxylic acid], the IC50 was 71 nM.

For the compound `CCN1CCc2cc(OCCCS(C)(=O)=O)ccc2-c2cc(COc3ccc4c(c3)OC[C@H]4CC(=O)O)ccc21` [Example 44, (S)-2-(6-((5-ethyl-9-(3-(methylsulfonyl)propoxy)-6,7-dihydro-5H-dibenzo[b,d]azepin-2-yl)methoxy)-2,3-dihydrobenzofuran-3-yl)acetic acid], the IC50 was determined as 75.7 nM.

`CCS(=O)(=O)CCCOc1ccc2c(c1)CCCc1cc(F)c(CNc3ccc([C@H]4C[C@@H]4C(=O)O)cc3)cc1-2` [Example 105, (1S,2S)-2-(4-(((9-(3-(ethylsulfonyl)propoxy)-3-fluoro-6,7-dihydro-5H-dibenzo[a,c][7]annulen-2-yl)methyl)amino)phenyl)cyclopropanecarboxylic acid]: the IC50 is 16.2 nM.

With `Cc1cc(OC2CCS(=O)(=O)CC2)cc2c1-c1cc(CNc3ccc([C@H]4C[C@@H]4C(=O)O)cc3)ccc1CCC2` [Example 76, (1S,2S)-2-(4-(((9-((1,1-dioxidotetrahydro-2H-thiopyran-4-yl)oxy)-11-methyl-6,7-dihydro-5H-dibenzo[a,c][7]annulen-2-yl)methyl)amino)phenyl)cyclopropanecarboxylic acid], the IC50 amounted to 14.7 nM.

As for `Cc1cc(OCCCS(C)(=O)=O)cc2c1-c1cc(COc3ccc4c(c3)OC[C@H]4CC(=O)O)ccc1OCC2` [Example 14, 2-((3S)-6-((11-methyl-9-(3-(methylsulfonyl)propoxy)-6,7-dihydrodibenzo[b,d]oxepin-2-yl)methoxy)-2,3-dihydrobenzofuran-3-yl)acetic acid], the IC50 is 17.7 nM.

Take `Cc1cc(OCCCS(C)(=O)=O)cc2c1-c1cc(COc3ccc([C@H]4C[C@@H]4C(=O)O)cc3)ccc1CC2` [Example 31, (1S,2S)-2-(4-((5-methyl-7-(3-(methylsulfonyl)propoxy)-9,10-dihydrophenanthren-3-yl)methoxy)phenyl)cyclopropanecarboxylic acid]: the IC50 worked out at 45.7 nM.

In the case of `CS(=O)(=O)CCCOc1ccc2c(c1)CCCc1ccc(COc3ccc([C@H]4C[C@@H]4C(=O)O)cc3)cc1-2` [Example 25, (1S,2S)-2-(4-((9-(3-(methylsulfonyl)propoxy)-6,7-dihydro-5H-dibenzo[a,c][7]annulen-2-yl)methoxy)phenyl)cyclopropanecarboxylic acid], the IC50 worked out at 103 nM.

Regarding `Cc1cc(OCCCS(C)(=O)=O)cc2c1-c1cccc(COc3ccc4c(c3)OC[C@H]4CC(=O)O)c1CCC2` [Example 1, 2-((3S)-6-((11-methyl-9-(3-(methylsulfonyl)propoxy)-6,7-dihydro-5H-dibenzo[a,c][7]annulen-4-yl)methoxy)-2,3-dihydrobenzofuran-3-yl)acetic acid], the IC50 is 158 nM.

As to `CCS(=O)(=O)CCCOc1cc(C)c2c(c1)CCCc1ccc(COc3ccc([C@H]4C[C@@H]4C(=O)O)cc3)cc1-2` [Example 61, (1S,2S)-2-(4-((9-(3-(ethylsulfonyl)propoxy)-11-methyl-6,7-dihydro-5H-dibenzo[a,c][7]annulen-2-yl)methoxy)phenyl)cyclopropanecarboxylic acid], the IC50 worked out at 26.6 nM.

In the case of `Cc1nc(N2CCOCC2)nc2c1-c1cc(COc3ccc4c(c3)OC[C@H]4CC(=O)O)ccc1CCC2` [Example 81, 2-((3S)-6-((1-methyl-3-morpholino-6,7-dihydro-5H-benzo[3,4]cyclohepta[1,2-d]pyrimidin-10-yl)methoxy)-2,3-dihydrobenzofuran-3-yl)acetic acid], the IC50 is 181 nM.

Regarding `CCS(=O)(=O)CCCOc1cc(C)c2c(c1)CCOc1ccc(COc3ccc([C@H]4C[C@@H]4C(=O)O)c(F)c3)cc1-2` [Example 41, (1S,2S)-2-(4-((9-(3-(ethylsulfonyl)propoxy)-11-methyl-6,7-dihydrodibenzo[b,d]oxepin-2-yl)methoxy)-2-fluorophenyl)cyclopropanecarboxylic acid], the IC50 was determined as 125 nM.

Turning to `C[C@@H]1Cc2cc(OCCCS(C)(=O)=O)ccc2-c2cc(COc3ccc4c(c3)OC[C@H]4CC(=O)O)ccc2O1` [Example 79, 2-((S)-6-(((R)-6-methyl-9-(3-(methylsulfonyl)propoxy)-6,7-dihydrodibenzo[b,d]oxepin-2-yl)methoxy)-2,3-dihydrobenzofuran-3-yl)acetic acid], the IC50 was determined as 84.4 nM.

For the compound `O=C(O)C[C@@H]1COc2cc(OCc3ccc4c(c3)-c3ccc(OCC5(O)CCS(=O)(=O)CC5)cc3CCC4)ccc21` [Example 65, (S)-2-(6-((9-((4-hydroxy-1,1-dioxidotetrahydro-2H-thiopyran-4-yl)methoxy)-6,7-dihydro-5H-dibenzo[a,c][7]annulen-2-yl)methoxy)-2,3-dihydrobenzofuran-3-yl)acetic acid], the IC50 was determined as 160 nM.

For `CCS(=O)(=O)CCCOc1cc(C)c2c(c1)CCOc1ccc(COc3ccc4c(c3)OC[C@H]4CC(=O)O)cc1-2` [Example 38, 2-((3S)-6-((9-(3-(ethylsulfonyl)propoxy)-11-methyl-6,7-dihydrodibenzo[b,d]oxepin-2-yl)methoxy)-2,3-dihydrobenzofuran-3-yl)acetic acid], the IC50 was 39.1 nM.
